The source of these data is patent US12593845B2 (priority 2019, dated 2026).

Assay [1] relates to wheat brown rust pathogen (Puccinia recondita). The assay is described as follows: Wheat brown rust control test. Format: in vivo. Particulars: 288 h, 125 ppm drug solution sprayed onto wheat seedlings (Norin 61), lesion area ratio 12 days after inoculation. The procedure:
(§1) 5 parts by weight of the dihydropyrimidine compound of the present invention, 93.5 parts by weight of N,N-dimethylformamide, and 1.5 parts by weight of polyoxyethylene sorbitan monolaurate (TWEEN® 20) were mixed and dissolved to obtain an emulsion (I) including 5% of an active ingredient.
(§2) The control value was calculated by the following expression. Control value (%)=100−{lesion area ratio in treated group/lesion area ratio in untreated group}×100 [Expression 1]
Water was added to the emulsion (I) such that the concentration of the dihydropyrimidine compound reached 125 ppm to dissolve the emulsion, and a drug solution was obtained. Subsequently, the drug solution was sprayed onto wheat seedlings (variety: “Norin 61”, leaf stage: 1 to 2) cultivated in seedling pots. After air drying, uredospores of a wheat brown rust pathogen (Puccinia recondita) were sprinkled on wheat seedlings sprayed with the drug solution for inoculation (treated group). As a control, wheat seedlings that were not sprayed with the drug solution were inoculated in the same manner as described above (untreated group). The seedlings were left to stand in a greenhouse at 20° C.
On the 12 days after the inoculation, the leaves of the wheat seedlings were visually observed to determine the lesion area ratio, and the control value was calculated.

Assay [2] has as its system Meloidogyne incognita. Description: Efficacy against Meloidogyne incognita. Format: in vivo. To be noted: 96 h, second-instar larvae (L2), 40 μL of 125 ppm drug solution added to 160 μL suspension per well, 20° C., 4 days, read-out: nematode mortality rate. The procedure: as §1
A suspension containing about 50/0.16 mL second-instar larvae (L2) of Meloidogyne incognita was poured into a 96-well microplate at 160 μL per well. Then, a drug solution prepared by adding water to the emulsion (I) so as to have a concentration of the dihydropyrimidine compound of 125 ppm was poured at 40 μL per well. The plate was left to stand under a 20° C. condition for 4 days.
Mortality was determined, and the nematode mortality rate was calculated. […] The test repeated twice.

In assay [3] the test system is apple scab pathogen (Venturia inaequalis). The assay is described as follows: Apple scab control test. Format: in vivo. To be noted: 336 h, 125 ppm drug solution sprayed onto apple seedlings (Orin), lesion area ratio 2 weeks after inoculation. A digest of the protocol:
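Compound emulsion diluted in water to 125 ppm and sprayed on 3-4 leaf 'Orin' apple seedlings, which were inoculated with V. inaequalis conidiospores after drying and held humidified at 20° C, 12 h light/dark. Lesion area ratio scored 2 weeks post-inoculation; control value computed relative to unsprayed inoculated plants.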

Assay [4] relates to wheat powdery mildew pathogen (Erysiphe graminis f. sp. tritici). Description: Wheat powdery mildew control test. Format: in vivo. To be noted: Blumeria graminis, 144 h; 125 ppm drug solution sprayed onto wheat seedlings (Chihoku); lesion area ratio 6 days after inoculation. In a few lines: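 Compound formulated as a 5% DMF/Tween 20 emulsion was diluted in water to 125 ppm and sprayed onto 1-2-leaf wheat seedlings (cv. Chihoku). Once dry, seedlings were inoculated with Erysiphe graminis f. sp. tritici conidia and kept in a greenhouse at 20 °C. Lesion area ratio was scored visually 6 days later, giving control value (%) relative to untreated inoculated plants.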

Assay [5] deals with cucumber gray mold pathogen (Botrytis cinerea). Description: Cucumber gray mold control test. Format: in vivo. Particulars: 125 ppm drug solution sprayed onto cucumber seedlings (cotyledon stage); lesion area ratio 4 days after inoculation. The procedure:
as §1, §2
Water was added to the emulsion (I) such that the concentration of the dihydropyrimidine compound reached 125 ppm to dissolve the emulsion, and a drug solution was obtained. Subsequently, the drug solution was sprayed onto cucumber seedlings (variety: “creeping” type, cotyledon stage) cultivated in seedling pots. After air drying, a suspension of conidiospores of a cucumber gray mold pathogen (Botrytis cinerea) was dropped thereon for inoculation (treated group). As a control, cucumber seedlings that were not sprayed with the drug solution were inoculated by dropping in the same manner as described above (untreated group). The seedlings were left to stand in a humidified room at 20° C.
On the 4 days after the inoculation, the leaves of the cucumber seedlings were visually observed to determine the lesion area ratio, and the control value was calculated.

Assay [6] concerns wheat powdery mildew pathogen (Erysiphe graminis f. sp. tritici). The assay is described as follows: Wheat powdery mildew seed treatment test. Format: in vivo. Particulars: Blumeria graminis, 168 h; seed treatment 100 g/100 kg wheat seeds (Chihoku); inoculation after 8 to 10 days; lesion area ratio 7 days after inoculation. A digest of the protocol: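 Wheat seeds (cv. Chihoku) were treated with a 5% emulsion at 100 g compound/100 kg seed, sown, and inoculated with conidiospores after 8 to 10 days. Plants were kept in a greenhouse at 20 °C. Lesion area was scored visually 7 days post-inoculation, and control value was computed relative to untreated inoculated seedlings.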

Assay [7] has the same test system. The assay is described as follows: Wheat powdery mildew soil irrigation treatment test. Format: in vivo. To be noted: Blumeria graminis, 168 h; soil irrigation with 10 ml of 100 ppm drug solution per pot, wheat (Chihoku); inoculation after 8 to 10 days; lesion area ratio 7 days after inoculation. The procedure: as §1, §2
Pots (5.5 cm×5.5 cm) in which wheat seeds (variety: “Chihoku”) were disseminated were irrigated with 10 ml of a drug solution prepared by adding water to the emulsion (I) so as to have a concentration of the dihydropyrimidine compound of 100 ppm. After 8 to 10 days, conidiospores of a wheat powdery mildew pathogen (Erysiphe graminis f. sp. tritici) were sprinkled thereon for inoculation (treated group). As a control, wheat seedlings that were not treated with the drug were inoculated in the same manner as described above (untreated group). The seedlings were left to stand in a greenhouse at 20° C.
On the 7 days after the inoculation, the leaves of the wheat seedlings were visually observed to determine the lesion area ratio, and the control value was calculated.

Assay [8] relates to Aspergillus niger. Description: Antimicrobial test against Aspergillus niger. Format: cell-based. Particulars: 96 h, Vogel medium, 25° C., 4 days in the dark, turbidity at 405 nm, read-out: growth inhibition rate. In a few lines:
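Growth inhibition (%) derived from 405 nm turbidity versus untreated control. Compound, dissolved in DMSO, tested at 25 ppm on spores in Vogel medium; cultures kept dark, 25° C., 4 days.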

In the case of `C=C1CCN(C(=O)C(C)n2c(=O)c(C=NOC(C)C)cn(CC(OCCC#N)c3cc(F)ccc3OC)c2=O)CC1` (centres unmarked) [A-64], the pest or weed control (commonly the degree to which the test organism was suppressed or injured, in per cent) at 125 ppm in assay [1] was no less than 75%. The mortality (usually the share of the test organisms that died) at 125 ppm in assay [2] is no less than 60%.

As to `COc1ccc(F)cc1C(O)Cn1cc(/C(C)=N/OC(C)C)c(=O)n(C[C@H](C)NC(=O)C(C)C)c1=O` (stereo partly drawn) [A-75, N-((2S)-1-(3-(2-(5-fluoro-2-methoxyphenyl)-2-hydroxyethyl)-5-((E)-1-(isopropoxyimino)ethyl)-2,6-dioxo-3,6-dihydropyrimidin-1(2H)-yl)propan-2-yl)isobutyramide], the pest or weed control at 125 ppm in assay [3] and in assay [4] was no less than 75% each time. Moreover, the Control value in assay [5] is no less than 75%. Moreover, the pest or weed control at 100 g/100 kg seed in assay [6] is no less than 75%. In assay [7], the pest or weed control at 100 ppm was no less than 75%. Moreover, the inhibition (in general, the share of the control response that was lost under treatment) at 25 ppm in assay [8] was no less than 50%.
